From patent publication US12071404B2, “Aza (indole)-, benzothiophene-, and benzofuran-3-sulfonamides” (UCB Pharma GmbH, priority 2016, dated 2024)

Experiments:
GPR17 [1] = molecular target: T1, GPR17 (Homo sapiens, UniProt Q13304); experiment: Calcium mobilization functional assay (GPR17 Ca2+ assay); format: cell-based; set-up: host or cells: Flp-In T-REx CHO; conditions: CHO hGPR17 cells, inhibition of 50 nM MDL29,951, Calcium 5 dye, FLIPR; read-out: Ca2+ assay pIC50 (converted)
In short: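 pIC50 values were fitted with a 4-parameter logistic curve. They reflect test-compound inhibition of cytosolic Ca2+ release evoked by 50 nM MDL29,951, tracked as Calcium 5 fluorescence at room temperature. Cells were CHO Flp-In T-REx stably carrying human GPR17, induced with doxycycline 1 μg/mL for 16-20 h.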

GPR17 [2] = molecular target: T1, GPR17; experiment: cAMP accumulation functional assay (HTRF, Schild analysis); format: cell-based; set-up: host or cells: Flp-In T-REx CHO; conditions: CHO hGPR17 cells, Schild analysis vs MDL29,951, 5 μM forskolin, read-out: cAMP assay pA2 (converted)
In short: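 Antagonist affinity (pA2) came from Schild plots of dose ratios, based on MDL29,951 concentration-response curves fitted by 4-parameter logistic. The read-out was HTRF cAMP in 5,000 doxycycline-induced CHO hGPR17 cells per well, with 30 min compound preincubation and 60 min stimulation, at room temperature in pH 7.4 buffer.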

T1 sequence (Q13304 whole entry): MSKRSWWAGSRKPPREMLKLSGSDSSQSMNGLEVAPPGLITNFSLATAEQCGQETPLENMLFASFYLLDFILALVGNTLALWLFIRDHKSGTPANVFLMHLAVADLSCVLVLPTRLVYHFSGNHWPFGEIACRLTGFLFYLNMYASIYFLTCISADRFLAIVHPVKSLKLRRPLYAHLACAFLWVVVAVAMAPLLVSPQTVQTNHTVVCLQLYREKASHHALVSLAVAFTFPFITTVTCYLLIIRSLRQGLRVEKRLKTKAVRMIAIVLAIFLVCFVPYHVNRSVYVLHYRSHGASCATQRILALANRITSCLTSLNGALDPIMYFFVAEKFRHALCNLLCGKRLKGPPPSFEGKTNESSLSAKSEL

IC50 (GPR17 [1]) | Kb (GPR17 [2]) | Compound
< 3.16 nM | < 3.16 nM | COc1nc(NS(=O)(=O)c2c[nH]c3cc(N=[N+]=[N-])ccc23)c(F)cc1CC#N [Compound I-353, 6-azido-N-[5-(cyanomethyl)-3-fluoro-6-methoxypyridin-2-yl]-1H-indole-3-sulfonamide]
3.16 to 31.6 nM | 3.16 to 31.6 nM | Cc1cnc(NS(=O)(=O)c2c[nH]c3cc(Cl)ccc23)c(F)c1 [Compound I-279, 6-chloro-N-(3-fluoro-5-methylpyridin-2-yl)-1H-indole-3-sulfonamide]
3.16 to 31.6 nM | < 3.16 nM | N#Cc1ccc2c(S(=O)(=O)Nc3cc(F)c(Cl)cc3F)c[nH]c2c1 [Compound I-277, N-(4-chloro-2,5-difluorophenyl)-6-cyano-1H-indole-3-sulfonamide]
< 3.16 nM | < 3.16 nM | O=S(=O)(Nc1cc(F)c(Br)cc1F)c1c[nH]c2c1ccc1cccnc12 [Compound I-305, N-(4-bromo-2,5-difluorophenyl)-1H-pyrrolo[3,2-h]quinoline-3-sulfonamide]
3.16 to 31.6 nM | 3.16 to 31.6 nM | O=S(=O)(Nc1ccc(OC(F)(F)F)cc1F)c1c[nH]c2nc(Cl)ccc12 [Compound I-273, 6-chloro-N-[2-fluoro-4-(trifluoromethoxy)phenyl]-1H-pyrrolo[2,3-b]pyridine-3-sulfonamide]
< 3.16 nM | < 3.16 nM | COc1nc(NS(=O)(=O)c2c[nH]c3c2ccc2ccccc23)c(F)cc1Cl [Compound I-329, N-(5-chloro-3-fluoro-6-methoxypyridin-2-yl)-1H-benzo[g]indole-3-sulfonamide]
< 3.16 nM | < 3.16 nM | COc1nc(NS(=O)(=O)c2c[nH]c3cc(Cl)c(Br)cc23)c(F)cc1CC#N [Compound I-324, 5-bromo-6-chloro-N-[5-(cyanomethyl)-3-fluoro-6-methoxypyridin-2-yl]-1H-indole-3-sulfonamide]
< 3.16 nM | 3.16 to 31.6 nM | COc1nc(NS(=O)(=O)c2c[nH]c3cc(Cl)c(F)cc23)c(F)cc1Cl [Compound I-339, 6-chloro-N-(5-chloro-3-fluoro-6-methoxypyridin-2-yl)-5-fluoro-1H-indole-3-sulfonamide]
3.16 to 31.6 nM | 3.16 to 31.6 nM | N#Cc1ccc2c(S(=O)(=O)Nc3cc(F)c(OC(F)F)cc3F)c[nH]c2c1 [Compound I-282, 6-cyano-N-[4-(difluoromethoxy)-2,5-difluorophenyl]-1H-indole-3-sulfonamide]
< 3.16 nM | < 3.16 nM | O=S(=O)(Nc1cc(F)c(C(F)(F)F)cc1F)c1c[nH]c2nc(Cl)ccc12 [Compound I-303, 6-chloro-N-[2,5-difluoro-4-(trifluoromethyl)phenyl]-1H-pyrrolo[2,3-b]pyridine-3-sulfonamide]
3.16 to 31.6 nM | < 3.16 nM | O=S(=O)(Nc1ncc(C(F)(F)F)cc1F)c1c[nH]c2cc(Cl)ccc12 [Compound I-297, 6-chloro-N-[3-fluoro-5-(trifluoromethyl)pyridin-2-yl]-1H-indole-3-sulfonamide]
3.16 to 31.6 nM | 3.16 to 31.6 nM | C#Cc1ccc(NS(=O)(=O)c2c[nH]c3nc(OC)ccc23)c(F)c1 [Compound I-283, N-(4-ethynyl-2-fluorophenyl)-6-methoxy-1H-pyrrolo[2,3-b]pyridine-3-sulfonamide]
< 3.16 nM | < 3.16 nM | O=S(=O)(Nc1nc(F)c(Cl)cc1F)c1c[nH]c2c1ccc1ccccc12 [Compound I-304, N-(5-chloro-3,6-difluoropyridin-2-yl)-1H-benzo[g]indole-3-sulfonamide]

The next lines start with the compound.

Compound | IC50 (GPR17 [1]) | Kb (GPR17 [2])
CS(=O)(=O)c1ccc2c(S(=O)(=O)Nc3cc4c(cc3F)OC(F)(F)O4)c[nH]c2c1 [Compound I-238, 6-(methylsulfonyl)-N-(2,2,6-trifluoro-1,3-benzodioxol-5-yl)-1H-indole-3-sulfonamide] | 3.16 to 31.6 nM | 3.16 to 31.6 nM
O=S(=O)(Nc1ccc(Cl)cn1)c1c[nH]c2cc(Cl)ccc12 [Compound I-63, 6-chloro-N-(5-chloropyridin-2-yl)-1H-indole-3-sulfonamide] | > 31.6 nM | 3.16 to 31.6 nM
COCCCc1cc(F)c(NS(=O)(=O)c2c[nH]c3cc(Cl)ccc23)nc1F [Compound I-253, 6-chloro-N-[3,6-difluoro-5-(3-methoxypropyl)pyridin-2-yl]-1H-indole-3-sulfonamide] | < 3.16 nM | < 3.16 nM
O=S(=O)(Nc1cc(F)ccc1F)c1c[nH]c2cc(Cl)ccc12 [Compound I-9, 6-chloro-N-(2,5-difluorophenyl)-1H-indole-3-sulfonamide] | 3.16 to 31.6 nM | 3.16 to 31.6 nM
O=S(=O)(Nc1cc(F)c(Cl)cc1F)c1c[nH]c2cc(-c3ccsc3)ccc12 [Compound I-236, N-(4-chloro-2,5-difluorophenyl)-6-(thiophen-3-yl)-1H-indole-3-sulfonamide] | > 31.6 nM | > 31.6 nM
O=C1OCc2ccc(NS(=O)(=O)c3c[nH]c4nc(Br)ccc34)cc21 [Compound I-92, 6-bromo-N-(3-oxo-1,3-dihydro-2-benzofuran-5-yl)-1H-pyrrolo[2,3-b]pyridine-3-sulfonamide] | > 31.6 nM | > 31.6 nM
O=S(=O)(Nc1cc(F)c(Cl)cc1F)c1c[nH]c2c1ccc1cccnc12 [Compound I-118, N-(4-chloro-2,5-difluorophenyl)-1H-pyrrolo[3,2-h]quinoline-3-sulfonamide] | < 3.16 nM | < 3.16 nM
Cc1cc(F)c(NS(=O)(=O)c2c[nH]c3cc(Cl)ccc23)cc1F [Compound I-270, 6-chloro-N-(2,5-difluoro-4-methylphenyl)-1H-indole-3-sulfonamide] | < 3.16 nM | < 3.16 nM
O=S(=O)(Nc1cc(F)c(OC(F)F)cc1F)c1c[nH]c2nc(Cl)ccc12 [Compound I-266, 6-chloro-N-[4-(difluoromethoxy)-2,5-difluorophenyl]-1H-pyrrolo[2,3-b]pyridine-3-sulfonamide] | < 3.16 nM | < 3.16 nM
O=S(=O)(Nc1cc(F)c(Cl)cc1F)c1c[nH]c2nc(Cl)ccc12 [Compound I-227, 6-chloro-N-(4-chloro-2,5-difluorophenyl)-1H-pyrrolo[2,3-b]pyridine-3-sulfonamide] | < 3.16 nM | < 3.16 nM
COc1ccc2c(S(=O)(=O)Nc3ccc(C#N)cc3F)c[nH]c2c1 [Compound I-112, N-(4-cyano-2-fluorophenyl)-6-methoxy-1H-indole-3-sulfonamide] | 3.16 to 31.6 nM | 3.16 to 31.6 nM
O=S(=O)(Nc1cc(F)c(Cl)cc1F)c1coc2cc(Cl)ccc12 [Compound I-198, 6-chloro-N-(4-chloro-2,5-difluorophenyl)-1-benzofuran-3-sulfonamide] | 3.16 to 31.6 nM | 3.16 to 31.6 nM
O=S(=O)(Nc1cc(F)c(Cl)cc1F)c1c[nH]c2cc(Cl)ccc12 [Compound I-204, 6-chloro-N-(4-chloro-2,5-difluorophenyl)-1H-indole-3-sulfonamide] | 3.16 to 31.6 nM | < 3.16 nM
N#Cc1ccc(NS(=O)(=O)c2c[nH]c3nc(Cl)ccc23)cc1 [Compound I-178, 6-chloro-N-(4-cyanophenyl)-1H-pyrrolo[2,3-b]pyridine-3-sulfonamide] | 3.16 to 31.6 nM | 3.16 to 31.6 nM
O=S(=O)(Nc1ccc2nonc2c1)c1c[nH]c2cc(Cl)ccc12 [Compound I-201, N-(2,1,3-benzoxadiazol-5-yl)-6-chloro-1H-indole-3-sulfonamide] | > 31.6 nM | < 3.16 nM
O=S(=O)(Nc1ccc(Br)cc1F)c1c[nH]c2cc(Cl)ccc12 [Compound I-212, N-(4-bromo-2-fluorophenyl)-6-chloro-1H-indole-3-sulfonamide] | 3.16 to 31.6 nM | < 3.16 nM
COc1cc(Br)cnc1NS(=O)(=O)c1c[nH]c2cc(Cl)ccc12 [Compound I-129, N-(5-bromo-3-methoxypyridin-2-yl)-6-chloro-1H-indole-3-sulfonamide] | 3.16 to 31.6 nM | 3.16 to 31.6 nM
O=S(=O)(Nc1cc2c(cc1F)OC(F)(F)O2)c1c[nH]c2nc(Cl)ccc12 [Compound I-225, 6-chloro-N-(2,2,6-trifluoro-1,3-benzodioxol-5-yl)-1H-pyrrolo[2,3-b]pyridine-3-sulfonamide] | > 31.6 nM | 3.16 to 31.6 nM
N#CCOc1cc(F)c(NS(=O)(=O)c2c[nH]c3cc(Cl)ccc23)cc1F [Compound I-257, 6-chloro-N-[4-(cyanomethoxy)-2,5-difluorophenyl]-1H-indole-3-sulfonamide] | < 3.16 nM | < 3.16 nM
O=S(=O)(Nc1ccc2nsnc2c1)c1c[nH]c2cc(Br)ccc12 [Compound I-183, N-(2,1,3-benzothiadiazol-5-yl)-6-bromo-1H-indole-3-sulfonamide] | < 3.16 nM | < 3.16 nM
C#Cc1ccc(NS(=O)(=O)c2c[nH]c3nc(Br)ccc23)cc1 [Compound I-85, 6-bromo-N-(4-ethynylphenyl)-1H-pyrrolo[2,3-b]pyridine-3-sulfonamide] | 3.16 to 31.6 nM | 3.16 to 31.6 nM
O=S(=O)(Nc1cccc2nsnc12)c1c[nH]c2cc(F)ccc12 [Compound I-107, N-(2,1,3-benzothiadiazol-4-yl)-6-fluoro-1H-indole-3-sulfonamide] | 3.16 to 31.6 nM | 3.16 to 31.6 nM
CS(=O)(=O)c1ccc2c(S(=O)(=O)Nc3cccc4c3OC(F)(F)O4)c[nH]c2c1 [Compound I-240, N-(2,2-difluoro-1,3-benzodioxol-4-yl)-6-methylsulfonyl-1H-indole-3-sulfonamide] | > 31.6 nM | > 31.6 nM
